According to ChEMBL document CHEMBL1150977, “A quantitative analysis of kinase inhibitor selectivity” (Nat Biotechnol, 2008):

Assays:
[1] = target: Protein kinase C theta type (Homo sapiens, UniProt Q04759)
[2] = target: T1, Serine/threonine-protein kinase DCLK1 (Homo sapiens, UniProt O15075)
T1 sequence (O15075 whole entry): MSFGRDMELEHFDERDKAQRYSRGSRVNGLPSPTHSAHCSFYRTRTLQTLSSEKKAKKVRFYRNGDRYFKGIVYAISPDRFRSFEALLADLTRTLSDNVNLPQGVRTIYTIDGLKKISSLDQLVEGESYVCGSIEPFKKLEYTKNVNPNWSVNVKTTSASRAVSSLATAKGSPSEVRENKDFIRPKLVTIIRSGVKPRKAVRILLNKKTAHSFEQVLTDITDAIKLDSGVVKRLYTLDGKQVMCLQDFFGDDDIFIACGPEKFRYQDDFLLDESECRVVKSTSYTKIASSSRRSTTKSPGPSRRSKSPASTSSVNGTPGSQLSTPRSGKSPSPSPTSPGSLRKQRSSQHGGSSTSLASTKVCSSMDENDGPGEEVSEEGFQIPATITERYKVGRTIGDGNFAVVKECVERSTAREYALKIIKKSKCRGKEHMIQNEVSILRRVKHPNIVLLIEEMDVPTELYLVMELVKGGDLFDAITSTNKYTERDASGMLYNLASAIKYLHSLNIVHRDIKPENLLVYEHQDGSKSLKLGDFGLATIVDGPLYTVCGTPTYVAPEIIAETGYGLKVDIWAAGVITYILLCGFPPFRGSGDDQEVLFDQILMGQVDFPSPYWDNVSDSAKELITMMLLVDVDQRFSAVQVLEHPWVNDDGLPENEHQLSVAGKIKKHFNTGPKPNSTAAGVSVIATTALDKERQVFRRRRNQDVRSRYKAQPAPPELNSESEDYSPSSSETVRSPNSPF

[3] = target: Cyclin-dependent kinase 18 (Homo sapiens, UniProt Q07002)
Cyclin-dependent kinase 18, sequence (Q07002 whole entry): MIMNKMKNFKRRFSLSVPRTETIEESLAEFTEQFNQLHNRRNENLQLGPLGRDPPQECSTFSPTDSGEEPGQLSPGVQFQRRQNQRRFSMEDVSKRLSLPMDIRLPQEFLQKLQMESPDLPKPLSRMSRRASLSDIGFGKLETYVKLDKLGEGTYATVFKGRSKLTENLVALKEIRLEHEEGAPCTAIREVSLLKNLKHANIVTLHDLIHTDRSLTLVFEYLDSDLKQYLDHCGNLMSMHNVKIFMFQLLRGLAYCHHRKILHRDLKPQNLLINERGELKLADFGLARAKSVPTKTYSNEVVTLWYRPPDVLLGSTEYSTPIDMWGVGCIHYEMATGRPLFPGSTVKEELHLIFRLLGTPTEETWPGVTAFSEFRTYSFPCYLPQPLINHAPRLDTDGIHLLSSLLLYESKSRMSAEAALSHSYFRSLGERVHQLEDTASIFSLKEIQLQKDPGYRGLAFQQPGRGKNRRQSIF

[4] = target: Cyclin-dependent kinase 17 (Homo sapiens, UniProt Q00537)
Cyclin-dependent kinase 17, sequence (Q00537 whole entry): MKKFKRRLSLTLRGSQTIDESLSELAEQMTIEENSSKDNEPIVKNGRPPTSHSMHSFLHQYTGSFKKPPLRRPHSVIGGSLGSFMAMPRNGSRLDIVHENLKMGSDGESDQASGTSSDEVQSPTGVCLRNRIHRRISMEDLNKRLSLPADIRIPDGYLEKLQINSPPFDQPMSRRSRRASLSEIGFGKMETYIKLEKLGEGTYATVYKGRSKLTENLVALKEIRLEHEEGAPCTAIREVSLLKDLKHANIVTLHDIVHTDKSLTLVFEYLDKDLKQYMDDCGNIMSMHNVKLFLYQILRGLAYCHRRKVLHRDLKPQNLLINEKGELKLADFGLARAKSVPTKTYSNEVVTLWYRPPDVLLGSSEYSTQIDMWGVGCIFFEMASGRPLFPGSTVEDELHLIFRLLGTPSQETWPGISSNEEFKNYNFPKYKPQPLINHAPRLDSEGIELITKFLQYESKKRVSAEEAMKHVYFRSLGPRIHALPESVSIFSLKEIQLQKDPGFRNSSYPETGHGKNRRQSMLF

[5] = target: TRAF2 and NCK-interacting protein kinase (Homo sapiens, UniProt Q9UKE5)
TRAF2 and NCK-interacting protein kinase, sequence (Q9UKE5 whole entry): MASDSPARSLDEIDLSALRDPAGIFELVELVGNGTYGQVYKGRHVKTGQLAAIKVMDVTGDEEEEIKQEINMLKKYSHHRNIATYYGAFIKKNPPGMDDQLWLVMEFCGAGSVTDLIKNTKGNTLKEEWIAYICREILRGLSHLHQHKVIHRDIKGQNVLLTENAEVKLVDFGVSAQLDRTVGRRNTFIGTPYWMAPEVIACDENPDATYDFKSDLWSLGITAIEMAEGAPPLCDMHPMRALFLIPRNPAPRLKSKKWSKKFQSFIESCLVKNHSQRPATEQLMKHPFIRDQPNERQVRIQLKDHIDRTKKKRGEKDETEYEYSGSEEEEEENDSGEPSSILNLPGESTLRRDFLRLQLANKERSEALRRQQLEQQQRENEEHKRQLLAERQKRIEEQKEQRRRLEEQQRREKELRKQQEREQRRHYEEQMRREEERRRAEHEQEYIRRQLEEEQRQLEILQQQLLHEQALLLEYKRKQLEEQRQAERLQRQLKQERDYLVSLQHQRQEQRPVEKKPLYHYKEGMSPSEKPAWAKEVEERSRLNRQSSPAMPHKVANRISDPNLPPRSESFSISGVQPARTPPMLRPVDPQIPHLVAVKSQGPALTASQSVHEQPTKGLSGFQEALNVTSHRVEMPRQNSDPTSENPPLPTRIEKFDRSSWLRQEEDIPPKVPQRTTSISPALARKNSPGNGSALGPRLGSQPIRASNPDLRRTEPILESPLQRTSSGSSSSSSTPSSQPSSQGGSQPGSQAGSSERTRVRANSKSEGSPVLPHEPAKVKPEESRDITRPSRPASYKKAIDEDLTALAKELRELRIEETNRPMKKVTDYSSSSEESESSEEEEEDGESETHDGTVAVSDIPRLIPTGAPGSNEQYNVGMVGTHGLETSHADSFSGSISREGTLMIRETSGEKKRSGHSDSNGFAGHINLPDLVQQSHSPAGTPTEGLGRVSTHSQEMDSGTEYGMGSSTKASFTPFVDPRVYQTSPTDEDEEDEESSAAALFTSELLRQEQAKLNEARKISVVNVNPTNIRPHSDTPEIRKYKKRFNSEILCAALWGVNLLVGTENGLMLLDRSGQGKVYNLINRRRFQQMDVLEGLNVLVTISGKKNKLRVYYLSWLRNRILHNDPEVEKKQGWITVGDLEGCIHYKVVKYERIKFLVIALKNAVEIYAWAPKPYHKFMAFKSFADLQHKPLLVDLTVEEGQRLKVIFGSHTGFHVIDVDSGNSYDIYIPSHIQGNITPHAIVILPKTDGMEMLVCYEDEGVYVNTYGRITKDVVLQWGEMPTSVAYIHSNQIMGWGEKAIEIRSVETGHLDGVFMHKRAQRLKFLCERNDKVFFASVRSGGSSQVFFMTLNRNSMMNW

[6] = target: T2, MAP kinase-activated protein kinase 5 (Homo sapiens, UniProt Q8IW41)
T2 sequence (Q8IW41 whole entry): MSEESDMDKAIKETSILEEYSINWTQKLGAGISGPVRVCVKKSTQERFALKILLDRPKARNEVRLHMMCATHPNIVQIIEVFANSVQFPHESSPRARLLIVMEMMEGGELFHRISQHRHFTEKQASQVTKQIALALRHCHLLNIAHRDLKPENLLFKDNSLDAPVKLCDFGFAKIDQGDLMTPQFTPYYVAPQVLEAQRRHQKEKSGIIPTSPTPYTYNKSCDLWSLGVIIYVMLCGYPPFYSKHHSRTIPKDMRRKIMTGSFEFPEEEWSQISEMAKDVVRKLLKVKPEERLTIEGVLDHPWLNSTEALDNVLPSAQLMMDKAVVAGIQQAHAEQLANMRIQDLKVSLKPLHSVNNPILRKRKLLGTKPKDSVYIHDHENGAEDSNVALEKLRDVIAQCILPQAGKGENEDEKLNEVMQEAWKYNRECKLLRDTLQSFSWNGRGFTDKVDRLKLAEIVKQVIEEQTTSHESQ

[7] = target: T3, Myosin light chain kinase family member 4 (Homo sapiens, UniProt Q86YV6)
T3 sequence (Q86YV6 whole entry): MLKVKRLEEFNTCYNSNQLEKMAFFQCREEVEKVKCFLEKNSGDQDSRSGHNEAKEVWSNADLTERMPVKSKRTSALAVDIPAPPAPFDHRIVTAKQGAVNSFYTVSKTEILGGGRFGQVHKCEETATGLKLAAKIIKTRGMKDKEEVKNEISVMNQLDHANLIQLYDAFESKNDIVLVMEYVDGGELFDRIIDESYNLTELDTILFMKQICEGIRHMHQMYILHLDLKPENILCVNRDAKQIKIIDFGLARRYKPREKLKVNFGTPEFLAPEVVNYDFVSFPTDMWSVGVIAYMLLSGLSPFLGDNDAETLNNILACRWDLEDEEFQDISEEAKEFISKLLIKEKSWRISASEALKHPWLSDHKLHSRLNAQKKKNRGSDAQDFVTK

[8] = target: T4, Serine/threonine-protein kinase tousled-like 1 (Homo sapiens, UniProt Q9UKI8)
T4 sequence (Q9UKI8 whole entry): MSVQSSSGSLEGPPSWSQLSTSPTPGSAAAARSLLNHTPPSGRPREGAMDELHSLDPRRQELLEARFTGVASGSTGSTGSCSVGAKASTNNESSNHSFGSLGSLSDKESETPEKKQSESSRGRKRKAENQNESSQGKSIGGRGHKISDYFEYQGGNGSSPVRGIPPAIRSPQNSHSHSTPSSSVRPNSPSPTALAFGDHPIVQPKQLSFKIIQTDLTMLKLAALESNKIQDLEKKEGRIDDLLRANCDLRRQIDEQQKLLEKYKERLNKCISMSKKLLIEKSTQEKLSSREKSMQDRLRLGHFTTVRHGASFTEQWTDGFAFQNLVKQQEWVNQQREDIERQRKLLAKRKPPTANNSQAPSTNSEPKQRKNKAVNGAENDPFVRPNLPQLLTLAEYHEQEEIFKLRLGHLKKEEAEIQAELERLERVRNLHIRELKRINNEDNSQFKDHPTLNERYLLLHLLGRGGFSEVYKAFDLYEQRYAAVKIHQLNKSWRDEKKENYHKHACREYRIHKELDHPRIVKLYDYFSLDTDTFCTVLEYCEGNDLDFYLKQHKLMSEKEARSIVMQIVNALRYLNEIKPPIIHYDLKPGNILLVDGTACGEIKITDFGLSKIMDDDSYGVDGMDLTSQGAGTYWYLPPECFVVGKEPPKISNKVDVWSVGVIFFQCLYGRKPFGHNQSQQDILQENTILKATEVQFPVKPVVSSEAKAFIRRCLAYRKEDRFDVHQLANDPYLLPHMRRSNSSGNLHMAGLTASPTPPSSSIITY

Protein kinase C theta type, sequence (Q04759 whole entry): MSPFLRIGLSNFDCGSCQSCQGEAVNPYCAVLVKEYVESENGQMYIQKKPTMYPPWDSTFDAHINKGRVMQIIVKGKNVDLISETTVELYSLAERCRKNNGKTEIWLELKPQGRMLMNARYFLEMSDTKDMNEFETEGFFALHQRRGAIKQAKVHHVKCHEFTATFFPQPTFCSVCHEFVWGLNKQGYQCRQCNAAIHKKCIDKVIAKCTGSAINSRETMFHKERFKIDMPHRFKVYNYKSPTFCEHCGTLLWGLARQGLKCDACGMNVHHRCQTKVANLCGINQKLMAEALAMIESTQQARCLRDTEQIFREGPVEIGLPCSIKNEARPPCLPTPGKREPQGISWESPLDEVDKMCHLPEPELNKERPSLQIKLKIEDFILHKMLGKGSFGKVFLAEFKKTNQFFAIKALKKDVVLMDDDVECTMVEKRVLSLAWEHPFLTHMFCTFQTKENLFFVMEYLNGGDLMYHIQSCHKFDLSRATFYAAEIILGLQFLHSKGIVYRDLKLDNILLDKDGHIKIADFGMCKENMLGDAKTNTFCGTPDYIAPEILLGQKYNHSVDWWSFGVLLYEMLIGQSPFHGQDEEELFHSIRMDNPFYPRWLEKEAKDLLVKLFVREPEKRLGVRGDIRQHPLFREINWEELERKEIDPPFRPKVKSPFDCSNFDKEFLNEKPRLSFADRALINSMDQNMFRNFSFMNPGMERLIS

With `COCC(=O)NC/C=C/c1ccc2ncnc(Nc3ccc(Oc4ccc(C)nc4)c(C)c3)c2c1` [CP-724714] the Kd [1] was > 10 µM, the Kd [2] was > 10 µM and the Kd [3] was > 10 µM. For the same molecule, the Kd [4] was > 10 µM, the Kd [5] was > 10 µM and the Kd [6] was > 10 µM. For the same molecule, the Kd [7] was > 10 µM and the Kd [8] was > 10 µM.

With `NC(=O)c1ccc(-c2nc(-c3ccc4c(c3)OCO4)c(-c3ccccn3)[nH]2)cc1` [SB-431542] the Kd [1] was > 10 µM, the Kd [2] was > 10 µM and the Kd [3] was > 10 µM. For the same molecule, the Kd [4] was > 10 µM, the Kd [5] was > 10 µM and the Kd [6] was > 10 µM. The Kd [7] was > 10 µM and the Kd [8] was > 10 µM.

`Nc1nc(Nc2ccc(S(N)(=O)=O)cc2)nn1C(=O)c1c(F)cccc1F` [JNJ-7706621] was tested, and the Kd [5] was > 10 µM, the Kd [6] was > 10 µM and the Kd [7] was > 10 µM.

In the case of `CCOc1cc2ncc(C#N)c(Nc3ccc(F)c(Cl)c3)c2cc1NC(=O)/C=C/CN(C)C` [PELITINIB], the Kd [1] is reported as > 10 µM, the Kd [2] is reported as > 10 µM and the Kd [3] is reported as > 10 µM. The Kd [4] was > 10 µM, the Kd [6] was > 10 µM and the Kd [7] was > 10 µM. The Kd [8] was > 10 µM.

With `Oc1ccc(-c2nc(-c3ccncc3)c(-c3ccc(F)cc3)[nH]2)cc1` [SB-202190] the Kd [1] was > 10 µM, the Kd [2] was > 10 µM and the Kd [3] was > 10 µM. For the same molecule, the Kd [4] was > 10 µM, the Kd [5] was 1.6 µM and the Kd [6] was > 10 µM. The Kd [7] was > 10 µM and the Kd [8] was > 10 µM.
